These results are taken from ChEMBL document CHEMBL1201862, “PubChem BioAssay data set” (2004).

What all share (test): NCI anticancer screen, dose series, 48 h
Test [1] deals with UACC-62.
Test [2] deals with OVCAR-5.
Test [3] relates to SNB-75.
For test [4], the system named is LOX IMVI.
In test [5] the test system is OVCAR-3.
Test [6] has as its system UO-31.
For test [7], the system named is MDA-N.
In test [8] the test system is HT-29.
Test [9] relates to HCT-116.
Test [10] relates to A498.
Test [11] has as its system ACHN.
Test [12] has as its system RXF 393.
In test [13] the test system is MOLT-4.
Test [14] has as its system CCRF-CEM.
The test system of test [15] is NCI/ADR-RES.
Test [16] has as its system NCI-H460.
The test system of test [17] is SF-268.
The test system of test [18] is DU-145.
Test [19] has as its system SNB-19.

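A five-concentration, 48-hour dose response in 96-well plates underlies each endpoint, interpolated linearly between surrounding concentrations. Here, GI50 denotes the concentration required for 50% inhibition of growth.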 Calls of active or inactive are those of the source. Rule as the data show it: active = GI50 up to about 1.1 µM and inactive = higher.

As for `O=C(O)CCc1ccc2c(c1)CC1(Cc3ccccc3C1)C2`, the GI50 was > 100 µM (inactive) in test [1]; > 100 µM (inactive) in [2]; < 0.01 µM (active) in test [3]; > 100 µM (inactive) in test [4]; > 100 µM (inactive) in [5]; > 100 µM (inactive) in test [6]. Moreover, the GI50 in [7] was > 100 µM (inactive); in [8], > 100 µM (inactive); in test [9] it was > 100 µM (inactive); in test [10], > 100 µM (inactive); in test [11], 58.5 µM (inactive); in test [12], > 100 µM (inactive). The GI50 is > 100 µM (inactive) in test [13], 80 µM (inactive) in [14] and > 100 µM (inactive) in [15].

`CC1(C)C(C#N)=[N+]([O-])C(C)(C)N1O`: the GI50 was > 100 µM (inactive) in test [16]; > 100 µM (inactive) in [17]; > 100 µM (inactive) in test [1]; > 100 µM (inactive) in test [2]; > 100 µM (inactive) in [3]; 77.3 µM (inactive) in test [4]. Further, the GI50 in [5] was > 100 µM (inactive); in test [18], > 100 µM (inactive); in test [6], > 100 µM (inactive); in test [7] it was 65.8 µM (inactive); in [8], > 100 µM (inactive); in test [9] it was > 100 µM (inactive). Further, the GI50 in [11] is > 100 µM (inactive); in [12] it was > 100 µM (inactive); in test [13], 35.5 µM (inactive); in [14], 33.5 µM (inactive); in [19] it was > 100 µM (inactive); in test [15] it was > 100 µM (inactive).

`C1OC1CO[C@@H]1CO[C@H]2[C@@H]1OC[C@H]2OCC1CO1` (stereo not given in full): the GI50 in test [16] was 61.7 µM (inactive); in test [17] it was > 100 µM (inactive); in [1] it was > 100 µM (inactive); in test [2] it was > 100 µM (inactive); in test [3], > 100 µM (inactive); in test [4], > 100 µM (inactive). Moreover, the GI50 in [5] is > 100 µM (inactive); in test [6], > 100 µM (inactive); in [8] it was > 100 µM (inactive); in [9], > 100 µM (inactive); in test [10] it was > 100 µM (inactive); in [11], 73.1 µM (inactive). For the same compound, the GI50 in [12] was > 100 µM (inactive); in [13], 78.2 µM (inactive); in [14], > 100 µM (inactive); in test [19], > 100 µM (inactive).

For `O=C(/C=C/c1cc(Cl)cc(Cl)c1O)c1cccc(O)c1`, the GI50 was > 100 µM (inactive) in test [16]; 40.2 µM (inactive) in test [17]; 29.8 µM (inactive) in [1]; 15 µM (inactive) in test [2]; 36 µM (inactive) in test [3]; 12.6 µM (inactive) in test [4]. Also, the GI50 in [5] is 28.4 µM (inactive); in test [6], 74.1 µM (inactive); in test [8], 93.8 µM (inactive); in test [9], 42.4 µM (inactive); in [10], > 100 µM (inactive); in [11], > 100 µM (inactive). Also, the GI50 in test [12] is > 100 µM (inactive); in test [13] it was 20.4 µM (inactive); in test [14] it was 29.9 µM (inactive); in test [19], 41.9 µM (inactive).

In the case of `O=C1N[C@@H](O)[C@@H]2ON=C(c3ccccc3)[C@H]12`, the GI50 in test [16], in test [17], in test [1], in test [2], in test [3] and in test [4] was > 100 µM (inactive) throughout. Moreover, the GI50 in test [5], in [6], in test [8], in test [9], in test [10] and in test [11] was > 100 µM (inactive) each time. Moreover, the GI50 in test [12], in test [13], in [14] and in test [19] was > 100 µM (inactive) each time.

Take `COc1cc(C=O)c(-c2cc3c(cc2C2(C)OCCS2)OCO3)c(OC)c1OC` (stereo not given): the GI50 in test [16] is 18.9 µM (inactive); in [17] it was 36.5 µM (inactive); in [1], 12.6 µM (inactive); in test [2] it was 50 µM (inactive); in test [3], 7.89 µM (inactive); in test [4], 9.12 µM (inactive). Moreover, the GI50 in test [5] was 5.14 µM (inactive); in test [6], 14.1 µM (inactive); in [8] it was 6.68 µM (inactive); in [9], 8 µM (inactive); in [10], 7.85 µM (inactive); in test [11], 18.5 µM (inactive). The GI50 in test [12] was 7.38 µM (inactive); in test [13], 12.5 µM (inactive); in test [14], 7.59 µM (inactive); in test [19] it was 30.2 µM (inactive).

Take `COc1ccc(-c2nc3c(nc2-c2ccc(OC)cc2)C(N)=NS(=O)(=O)N3)cc1`: the GI50 in test [17], in [1], in test [2], in test [3], in test [4] and in test [5] was > 100 µM (inactive) each time. The GI50 in test [6], in [8], in test [10], in test [11], in test [12] and in [13] was > 100 µM (inactive) each time. Besides, the GI50 in test [14] and in test [19] was > 100 µM (inactive) in each case.

As to `O=C(/C=C1/Nc2ccc([N+](=O)[O-])cc2NC1O)c1cccc([N+](=O)[O-])c1` (stereo not given), the GI50 was 39.2 µM (inactive) in test [16]; 53.2 µM (inactive) in [17]; 81.7 µM (inactive) in test [1]; 46.3 µM (inactive) in [3]; 22.2 µM (inactive) in test [4]; 35.6 µM (inactive) in test [5]. The GI50 in test [6] is 35.9 µM (inactive); in test [8] it was 56.2 µM (inactive); in test [9] it was 26.2 µM (inactive); in [10], > 100 µM (inactive); in test [11] it was 66.5 µM (inactive); in test [12], 23.6 µM (inactive). In addition, the results for the GI50 in [13], in test [14] and in test [19] were 64.4 µM (inactive), 14.5 µM (inactive) and > 100 µM (inactive), respectively.

As to `O=C(/C=C/c1ccc(OCCCCCCCCCCOc2ccc(/C=C/C(=O)c3ccc(Cl)cc3)cc2)cc1)c1ccc(Cl)cc1`, the GI50 in [16], in test [17], in test [1], in test [2], in [3] and in test [4] was > 100 µM (inactive) each time. The GI50 in test [5], in [6], in test [8], in test [10], in test [11] and in test [12] was > 100 µM (inactive) in each case. The GI50 in [13], in test [14] and in test [19] was > 100 µM (inactive) each time.

`Nc1nc2ncn(CC(O)CO)c2c(=S)[nH]1` (stereo not given): the GI50 in test [16], in test [17], in test [1], in [2], in [3] and in [4] was > 100 µM (inactive) throughout. Further, the GI50 in [5], in [6], in test [8], in test [9], in test [10] and in test [11] was > 100 µM (inactive) in each case. In addition, the GI50 in test [12], in test [14] and in [19] was > 100 µM (inactive) throughout.

Take `O=C1c2ccccc2C(=O)c2nc(-c3ccccc3)c(-c3ccccc3)nc21`: the GI50 in test [16] is 5.83 µM (inactive); in test [17] it was > 100 µM (inactive); in test [1], 2.74 µM (inactive); in test [2], > 100 µM (inactive); in test [3], 8.15 µM (inactive); in test [4] it was 8.04 µM (inactive). The GI50 in [5] was 2.58 µM (inactive); in test [6], > 100 µM (inactive); in test [8] it was 21.7 µM (inactive); in test [9], > 100 µM (inactive); in test [10], 28.2 µM (inactive); in test [11], > 100 µM (inactive). The GI50 is > 43.5 µM (inactive) in test [12], > 100 µM (inactive) in [13], > 100 µM (inactive) in test [14] and 24.9 µM (inactive) in test [19].

As to `Nc1ncnc2c1ncn2C1CCC(COS(N)(=O)=O)C1` (stereo not given), the GI50 in test [16] is > 100 µM (inactive); in test [17], > 100 µM (inactive); in test [1], > 100 µM (inactive); in [2], > 100 µM (inactive); in [3] it was 89.5 µM (inactive); in test [4], 37 µM (inactive). The GI50 in test [5] was 80.7 µM (inactive); in test [18] it was > 100 µM (inactive); in test [6], > 100 µM (inactive); in test [7], > 100 µM (inactive); in [8], > 100 µM (inactive); in test [9], 57.5 µM (inactive). For the same compound, the GI50 was > 100 µM (inactive) in test [11]; > 100 µM (inactive) in [12]; 46.9 µM (inactive) in test [13]; > 100 µM (inactive) in [14]; > 100 µM (inactive) in test [19]; > 100 µM (inactive) in test [15].
